The results in this text go back to the SangsterLogP compilation.

Usually logP stands for the decadic logarithm of the partition coefficient of the neutral form, usually between octanol and water. A low value points to a more hydrophilic compound.

Structures are written as SMILES.

A short description of this data set: method code SF-AS, from DOI: 10.1021/je900189v.
`Nc1ccc(S(=O)(=O)Nc2ccccc2Cl)c(Cl)c1` showed a logP of 2.98. `O=S(=O)(Nc1cccc(Cl)c1Cl)c1ccccc1`: the logP was determined as 3.45. Consider `Cc1cc(Cl)ccc1NS(=O)(=O)c1ccc(N)cc1`, for which the logP worked out at 2.65. For `O=S(=O)(Nc1ccccc1Cl)c1ccccc1` the value was 2.72; for `Cc1ccc(NS(=O)(=O)c2ccc([N+](=O)[O-])cc2)nc1`, 1.01. On to `Cc1cc(N)ccc1S(=O)(=O)Nc1ccccc1[N+](=O)[O-]`, for which the logP was determined as 2.19. For `Nc1ccc(S(=O)(=O)Nc2ccc(I)cc2)cc1` the value was 2.82; for `Cc1ccc(NS(=O)(=O)c2ccc(N)cc2)c(Cl)c1`, 2.37. The result for `Nc1ccc(S(=O)(=O)Nc2ccc(Cl)cc2)cc1` reads 2.47. `CCN(CC)S(=O)(=O)c1ccc(N)cc1` yielded a logP of 1.52. Take `Nc1ccc(S(=O)(=O)Nc2cc(Cl)ccc2Cl)cc1`: the logP was determined as 2.45. For `CCc1ccc(NS(=O)(=O)c2ccc(N)cc2)cc1` the value was 2.62. For `Cc1cc(N)ccc1S(=O)(=O)Nc1ccccc1Cl` the value was 2.66; for `Nc1ccc(S(=O)(=O)Nc2ccc(Cl)c(Cl)c2)cc1`, 2.64; for `Nc1ccc(S(=O)(=O)Nc2ccc([N+](=O)[O-])cc2Br)cc1`, 1.87. The result for `O=S(=O)(Nc1cccnc1Cl)c1ccccc1` reads 1.89; that for `Nc1ccc(S(=O)(=O)Nc2ccc(Cl)cc2)c(Cl)c1`, 2.48; that for `CC(=O)Nc1ccncc1NS(=O)(=O)c1ccc([N+](=O)[O-])cc1`, 0.71. `CNS(=O)(=O)c1ccc(N)cc1` displayed a logP of 0.07. Turning to `O=[N+]([O-])c1ccc(NS(=O)(=O)c2ccccc2)cc1`, the logP amounted to 2.09.

In turn, `Cc1ccc(Cl)cc1NS(=O)(=O)c1ccc(N)cc1` displayed a logP of 2.73.

`Cc1cc(N)ccc1S(=O)(=O)Nc1ccc(Cl)cc1`: the logP was 2.73. On to `COc1ccc(NS(=O)(=O)c2ccc(N)cc2)cc1`, for which the logP turned out to be 1.58. The result for `O=[N+]([O-])c1ccccc1NS(=O)(=O)c1ccccc1` reads 2.08; that for `COc1c(Cl)cccc1NS(=O)(=O)c1ccc(N)cc1`, 2.43; that for `O=[N+]([O-])c1ccc(S(=O)(=O)Nc2nccs2)cc1`, 1.19. The result for `Cc1ccc(NS(=O)(=O)c2ccc(N)cc2)cc1Cl` reads 2.92. For the compound `Nc1ccc(S(=O)(=O)Nc2ccc([N+](=O)[O-])cc2)cc1`, the lipophilicity (logP) was determined as 1.88. For `O=S(=O)(Nc1ncccc1Cl)c1ccccc1` the value was 1.54; for `O=S(=O)(Nc1ccc(Cl)cc1)c1ccccc1`, 3.44; for `Nc1ccc(S(=O)(=O)Nc2cc(Cl)c(Cl)cc2Cl)cc1`, 3.17. The result for `CCOc1ccc(NS(=O)(=O)c2ccc([N+](=O)[O-])cc2)cc1` reads 2.23.
